The results in this text go back to patent US11680056B2, “MK2 inhibitors and uses thereof” (Xinthera, Inc., priority 2021, dated 2023).

The target of assay [1] is p38a/MK2 (Homo sapiens (Human), UniProt P49137+Q16539). As to the kind of experiment: p38a/MK2 biochemical assay: activation of MK2 by p38, FITC-HSP27 peptide phosphorylation (IMAP FP). To be noted: 10-point 1:3 dilution, 60 pM active p38a, 1 nM inactive MK2, 10 μM ATP, 2 h incubation. On the procedure: (§1) Expression vectors of the recombinant MK2 and PRAK kinases were constructed by cloning of the codon optimized gene sequences of MK2 (Uniprot ID P49137, amino acid fragment F46-H400), or PRAK (Uniprot ID Q81W41, amino acid fragment M1-Q471) into pGEX-4T1 (GE) for over expression of these kinases with N-terminal GST-tag. Protein expression was carried out in E. coli BL21 by growing the hosts in TB medium, induction of protein expression with 0.5 mM IPTG at approximate 0.8 OD600, and incubation of the cultures at 18° C. for 14-20 hours afterwards. The harvested cells were resuspended in […] of Lysis buffer (50 mM Tris-HCl, pH 8.0, 500 mM NaCl, 1 mM DTT, 5% glycerol, and 1 mM PMSF) per gram of wet cell mass and homogenized at 4° C. in a microfluidizer (ATS, Suzhou, China) at 14,000 psi pressure, 3 passes. The cell lysates were clarified by centrifugation and the supernatants containing the GST-fusion proteins were purified by affinity chromatography using GSH-Sepharose (GE) gravity flow columns pre-equilibrated in Buffer A (50 mM Tris-HCl, pH 8.0, 500 mM NaCl, 1 mM DTT, and 5% glycerol). After thorough washing of the columns with Buffer A, the bound GST-proteins were eluted by Buffer B (50 mM Tris, pH 8.0, 500 mM NaCl, 1 mM DTT, 5% glycerol, 10 mM glutathione), followed by size-exclusion purification on Superdex 200 column equilibrated in Buffer A. The purified proteins were concentrated to approximately 1 mg/ml and stored at −80° C.
This study evaluates the inhibitory potency of invention compound on p38/MK2 pathway vs p38/PRAK pathway. More specially the compound concentration (IC50) was determined that inhibited half of the maximal activation of MK2 or PRAK by p38. MK2 activation study was set up without or with a serial of 10-point 1:[…], and PRAK activation study was set up without or with a serial of 10-point 1:3 dilution of invention compound at top dose of 300 μM. The MK2 and PRAK activity were determined by the phosphorylation level of HSP27 peptide conjugated with FITC.
(§2) After 2 h incubation of the reaction mixture with various concentration of invention compound (200 nL), 60 μL 1×IMAP solution Mixture (Molecular Devices, Cat R8127) was added to the reaction mixture and incubated for another half hour. The signal was then read by Synergy™ Neo2 Multi-Mode Microplate Reader with filter setting (Ex/Em=485 nm/FITC FP-P pol 528 nm & FITC FP-S pol 528 nm)
(§3) The signal was then normalized to vehicle control and fitted in Xfit to generate IC50. The selectivity of MK2 over PRAK was calculated by the formular Selectivity=IC50 of PRAK/IC50 of MK2.

In assay [2] the target is p38a/PRAK (Homo sapiens (Human), UniProt Q16539). As to the kind of experiment: p38a/PRAK biochemical assay: activation of PRAK by p38, FITC-HSP27 peptide phosphorylation (IMAP FP). To be noted: 10-point 1:3 dilution, top dose 300 μM, 60 pM active p38a, 1 nM inactive PRAK, 10 μM ATP, 2 h incubation; for IC50: read-out: p38a/PRAK Enzyme pIC50 (converted). On the procedure: as §1
This study evaluates the inhibitory potency of invention compound on p38/MK2 pathway vs p38/PRAK pathway. More specially the compound concentration (IC50) was determined that inhibited half of the maximal activation of MK2 or PRAK by p38. MK2 activation study was set up without or with a serial of 10-point 1:3 dilution of invention compound at top dose of […], and PRAK activation study was set up without or with a serial of 10-point 1:3 dilution of invention compound at top dose of 300 μM. The MK2 and PRAK activity were determined by the phosphorylation level of HSP27 peptide conjugated with FITC.
as §2, §3

[3] abbreviates: top dose 1 μM, read-out: p38a/MK2 (1 μM) Enzyme pIC50 (converted).
Setting [4] is: top dose 10 μM, read-out: p38a/MK2 (10 μM) Enzyme pIC50 (converted).

Read-outs that look alike come from different tables or passages of the source.

Sequence of p38a/MK2 (P49137 46-400): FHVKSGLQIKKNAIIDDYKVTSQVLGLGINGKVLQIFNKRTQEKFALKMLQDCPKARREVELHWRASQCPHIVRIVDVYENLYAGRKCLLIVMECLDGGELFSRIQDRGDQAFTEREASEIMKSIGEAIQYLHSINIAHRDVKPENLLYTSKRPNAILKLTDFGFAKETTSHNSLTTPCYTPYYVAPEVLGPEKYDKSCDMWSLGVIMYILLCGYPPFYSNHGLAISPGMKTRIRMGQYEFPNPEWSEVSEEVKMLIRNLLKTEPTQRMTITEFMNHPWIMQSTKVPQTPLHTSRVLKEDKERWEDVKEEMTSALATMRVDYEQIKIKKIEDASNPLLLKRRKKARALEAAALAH
Sequence of p38a/MK2 (Q16539 whole entry, the tested form may be a part): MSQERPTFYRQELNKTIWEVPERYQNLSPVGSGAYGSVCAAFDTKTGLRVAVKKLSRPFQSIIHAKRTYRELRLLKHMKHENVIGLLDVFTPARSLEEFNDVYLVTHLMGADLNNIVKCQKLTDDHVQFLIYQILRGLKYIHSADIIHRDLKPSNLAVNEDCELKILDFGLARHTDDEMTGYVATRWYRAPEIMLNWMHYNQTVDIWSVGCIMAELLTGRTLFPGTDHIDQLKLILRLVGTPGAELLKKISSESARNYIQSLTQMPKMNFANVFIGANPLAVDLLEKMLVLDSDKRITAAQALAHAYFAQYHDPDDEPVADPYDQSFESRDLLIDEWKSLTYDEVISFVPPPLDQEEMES
Sequence of p38a/PRAK (Q16539 whole entry): as the sequence (Q16539 whole entry, the tested form may be a part) above

As for `Cc1cnc(-n2ccc(C(C)(C)O)n2)c(C)c1-n1c(C)cc(OCc2ncc(F)cc2F)c(Cl)c1=O` (single isomer, unassigned) [Example 50B, rel-3-chloro-4-[(3,5-difluoropyridin-2-yl)methoxy]-2′-[3-(2-hydroxypropan-2-yl)pyrazol-1-yl]-3′,5′,6-trimethyl-[1,4′-bipyridin]-2-one], the results for the IC50 in assay [1] (setting [3]) and in assay [2] were more than 1 µM and more than 316 µM, respectively.
`Cc1cnc(-c2ccnc(CC3(O)CC3)n2)cc1-n1c(C)cc(OCc2ncc(F)cc2F)c(Cl)c1=O` (single isomer, unassigned) [Example 48A, rel-3-chloro-4-[(3,5-difluoropyridin-2-yl)methoxy]-2′-{2-[(1-hydroxycyclopropyl)methyl]pyrimidin-4-yl}-5′,6-dimethyl-[1,4′-bipyridin]-2-one]: the IC50 is 0.00501 µM in assay [1] (setting [3]) and 2 µM in assay [2].
For the compound `Cc1cnc(-c2nc(C(C)(C)O)ncc2C2CC2)cc1-n1c(C)cc(OCc2ncc(F)cc2F)c(Cl)c1=O` (single isomer, unassigned) [Example 31B, rel-3-chloro-2′-(5-cyclopropyl-2-(2-hydroxypropan-2-yl)pyrimidin-4-yl)-4-((3,5-difluoropyridin-2-yl)methoxy)-5′,6-dimethyl-2H-[1,4′-bipyridin]-2-one], the IC50 in assay [1] (setting [4]) is more than 10 µM; in assay [2], more than 316 µM.
Turning to `[2H]C([2H])(Oc1cc(C)n(-c2c(C)cnc(-c3ccnc(C(C)(C)O)c3F)c2F)c(=O)c1Cl)c1ncc(F)cc1F` (single isomer, unassigned) [Example 65B, rel-3-chloro-1-[3,3′-difluoro-2′-(2-hydroxypropan-2-yl)-5-methyl-[2,4′-bipyridin]-4-yl]-4-[(3,5-difluoropyridin-2-yl)(2H2)methoxy]-6-methylpyridin-2-one], the IC50 is more than 0.1 µM in assay [1] (setting [3]) and 79.4 µM in assay [2].
On to `Cc1cnc(-c2ccc3c(n2)C(C)(O)CC3)cc1-n1c(C)cc(OCc2ncc(F)cc2F)c(Cl)c1=O` (single isomer, unassigned) [Example 32B], for which the IC50 was 1 µM in assay [1] (setting [4]) and more than 316 µM in assay [2].
In the case of `[2H]C([2H])(Oc1cc(C)n(-c2cc(-c3ccnc(C(C)(C)O)c3F)ncc2C)c(=O)c1Cl)c1ncc(F)cc1F` (single isomer, unassigned) [Example 64B, rel-3-chloro-4-[(3,5-difluoropyridin-2-yl)(2H2)methoxy]-1-[3′-fluoro-2′-(2-hydroxypropan-2-yl)-5-methyl-[2,4′-bipyridin]-4-yl]-6-methylpyridin-2-one], the values for the IC50 in assay [1] (setting [3]) and in assay [2] were more than 0.1 µM and more than 316 µM, respectively.
In the same order, the values of `Cc1cnc(-n2ccc(C(C)(C)O)n2)cc1-n1c(C)cc(OCc2ncc(F)cc2F)c(Cl)c1=O` (single isomer, unassigned) [Example 9A, rel-3-chloro-4-((3,5-difluoropyridin-2-yl)methoxy)-2′-(3-(2-hydroxypropan-2-yl)-1H-pyrazol-1-yl)-5′,6-dimethyl-2H-[1,4′-bipyridin]-2-one] are 0.00398 µM and 3.16 µM.
For `Cc1cnc(-c2ccnc(C3(O)CCC3)n2)cc1-n1c(C)cc(OCc2ncc(F)cc2F)c(Cl)c1=O` (single isomer, unassigned) [Example 41A, rel-3-chloro-4-[(3,5-difluoropyridin-2-yl)methoxy]-2′-[2-(1-hydroxycyclobutyl)pyrimidin-4-yl]-5′,6-dimethyl-[1,4′-bipyridin]-2-one], in that order: 0.00501 µM and 3.16 µM.
Regarding `Cc1cnc(-c2ccc3c(n2)[C@@H](O)CC3)cc1-n1c(C)cc(OCc2ncc(F)cc2F)c(Cl)c1=O` (single isomer, unassigned) [Example 18B], the IC50 in assay [1] (setting [4]) was more than 10 µM; in assay [2], more than 316 µM.
As for `Cc1cnc(-c2ccnc(C3(O)CCOCC3)n2)cc1-n1c(C)cc(OCc2ncc(F)cc2F)c(Cl)c1=O` (single isomer, unassigned) [Example 39A, rel-3-chloro-4-((3,5-difluoropyridin-2-yl)methoxy)-2′-(2-(4-hydroxytetrahydro-2H-pyran-4-yl)pyrimidin-4-yl)-5′,6-dimethyl-2H-[1,4′-bipyridin]-2-one], the IC50 in assay [1] (setting [3]) was 0.01 µM; in assay [2], 12.6 µM.
For the compound `Cc1cnc(-c2ccc3c(n2)C(C)(O)CC3)cc1-n1c(C)cc(OCc2ncc(F)cc2F)c(Cl)c1=O` (single isomer, unassigned) [Example 32C], the figures for the IC50 in assay [1] (setting [4]) and in assay [2] were 0.0631 µM and 6.31 µM, respectively.
In the case of `[2H]C([2H])([2H])C(O)(c1nccc(-c2ncc(C)c(-n3c(C)cc(OCc4ncc(F)cc4F)c(Cl)c3=O)c2F)n1)C([2H])([2H])[2H]` (single isomer, unassigned) [Example 66A, rel-3-chloro-4-((3,5-difluoropyridin-2-yl)methoxy)-3′-fluoro-2′-(2-(2-hydroxypropan-2-yl-1,1,1,3,3,3-d6)pyrimidin-4-yl)-5′,6-dimethyl-2H-[1,4′-bipyridin]-2-one], the IC50 was more than 0.1 µM in assay [1] (setting [3]) and more than 316 µM in assay [2].
For the compound `Cc1sc(-c2ccnc(C(C)(C)O)n2)nc1-n1c(C)cc(OCc2ncc(F)cc2F)c(Cl)c1=O` [Example 17, 3-chloro-4-[(3,5-difluoropyridin-2-yl)methoxy]-1-{2-[2-(2-hydroxypropan-2-yl)pyrimidin-4-yl]-5-methyl-1,3-thiazol-4-yl}-6-methylpyridin-2-one], the values for the IC50 in assay [1] (setting [4]) and in assay [2] were 2.51 µM and 39.8 µM, respectively.
In the same order, the values of `Cc1cnc(-c2cccc([C@@H](O)CO)n2)cc1-n1c(C)cc(OCc2ncc(F)cc2F)c(Cl)c1=O` (single isomer, unassigned) [Example 34D, rel-3-chloro-4-[(3,5-difluoropyridin-2-yl)methoxy]-2′-[6-(1,2-dihydroxyethyl)pyridin-2-yl]-5′,6-dimethyl-[1,4′-bipyridin]-2-one] are 3.16 µM and more than 316 µM.
As for `Cc1cnc(-c2ccc3c(n2)[C@@H](O)CC3)cc1-n1c(C)cc(OCc2ncc(F)cc2F)c(Cl)c1=O` (single isomer, unassigned) [Example 18C], the “p38a/MK2 (10 μM) Enzyme pIC50” value in assay [1] (top dose 10 μM) was less than 5.0. The “p38a/PRAK Enzyme pIC50” value in assay [2] was less than 3.5.
Take `Cc1cnc(-c2ccnc([C@](C)(O)C3CC3)n2)cc1-n1c(C)cc(OCc2ncc(F)cc2F)c(Cl)c1=O` (single isomer, unassigned) [Example 6B, rel-3-chloro-2′-[2-(1-cyclopropyl-1-hydroxyethyl)pyrimidin-4-yl]-4-[(3,5-difluoropyridin-2-yl)methoxy]-5′,6-dimethyl-[1,4′-bipyridin]-2-one]: the IC50 in assay [1] (setting [3]) was 0.00501 µM; in assay [2], 10 µM.
For `Cc1cnc(-c2ccnc(N(C)CCO)n2)cc1-n1c(C)cc(OCc2ncc(F)cc2F)c(Cl)c1=O` (single isomer, unassigned) [Example 43A, rel-3-chloro-4-[(3,5-difluoropyridin-2-yl)methoxy]-2′-{2-[(2-hydroxyethyl)(methyl)amino]pyrimidin-4-yl}-5′,6-dimethyl-[1,4′-bipyridin]-2-one], in that order: 0.0126 µM and 2.51 µM.
